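All cell lines were grown in 96-well plates and treated with compound for 48 hours. Abbreviation: GI50, concentration required for 50% inhibition of growth. TGI: total growth inhibition.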
Key:
Test in all cases: DTP human tumour cell line panel, 48 h
LOX IMVI melanoma = test system: LOX IMVI melanoma
SR leukemia = test system: SR leukemia
OVCAR-5 ovarian = test system: OVCAR-5 ovarian
EKVX NSCLC = test system: EKVX NSCLC
UACC-62 melanoma = test system: UACC-62 melanoma
SF-268 CNS = test system: SF-268 CNS
CCRF-CEM leukemia = test system: CCRF-CEM leukemia
OVCAR-8 ovarian = test system: OVCAR-8 ovarian
HCT-116 colon = test system: HCT-116 colon
RXF 393 renal = test system: RXF 393 renal
HCC-2998 colon = test system: HCC-2998 colon
HS 578T breast = test system: HS 578T breast
SK-MEL-28 melanoma = test system: SK-MEL-28 melanoma
NCI-H23 lung = test system: NCI-H23 lung
COLO 205 colon = test system: COLO 205 colon
MDA-MB-435 = test system: MDA-MB-435
CAKI-1 renal = test system: CAKI-1 renal
TK-10 renal = test system: TK-10 renal
DU-145 prostate = test system: DU-145 prostate
SF-295 CNS = test system: SF-295 CNS
SF-539 CNS = test system: SF-539 CNS
UACC-257 melanoma = test system: UACC-257 melanoma
A549 NSCLC = test system: A549 NSCLC
BT-549 breast = test system: BT-549 breast
HOP-92 NSCLC = test system: HOP-92 NSCLC
MALME-3M melanoma = test system: MALME-3M melanoma
ACHN renal = test system: ACHN renal
HCT-15 colon = test system: HCT-15 colon

COc1cccc(/C=C/C(=O)c2ccc(Cl)cc2Cl)c1OC
GI50 (LOX IMVI melanoma): 2.64 µM
TGI (LOX IMVI melanoma): 6.88 µM
GI50 (SR leukemia): 2.28 µM
TGI (SR leukemia): 9.67 µM
GI50 (OVCAR-5 ovarian): 17.1 µM
TGI (OVCAR-5 ovarian): 30.9 µM
GI50 (EKVX NSCLC): 13.6 µM
TGI (EKVX NSCLC): 31.8 µM
GI50 (UACC-62 melanoma): 10.6 µM
TGI (UACC-62 melanoma): 24 µM
GI50 (SF-268 CNS): 12.9 µM
TGI (SF-268 CNS): 41.5 µM
GI50 (CCRF-CEM leukemia): 2.77 µM
TGI (CCRF-CEM leukemia): 26.9 µM
GI50 (OVCAR-8 ovarian): 3.73 µM
TGI (OVCAR-8 ovarian): 13.7 µM
GI50 (HCT-116 colon): 2.31 µM
TGI (HCT-116 colon): 5.85 µM
GI50 (RXF 393 renal): 4.07 µM
TGI (RXF 393 renal): 15.8 µM
GI50 (HCC-2998 colon): 14.5 µM
TGI (HCC-2998 colon): 27.7 µM
TGI (HS 578T breast): 39.8 µM
GI50 (SK-MEL-28 melanoma): 14.2 µM
TGI (SK-MEL-28 melanoma): 27.4 µM
GI50 (NCI-H23 lung): 13.7 µM
TGI (NCI-H23 lung): 26.6 µM
GI50 (COLO 205 colon): 5.44 µM
TGI (COLO 205 colon): 17.4 µM
GI50 (MDA-MB-435): 5.51 µM
TGI (MDA-MB-435): 18.7 µM
GI50 (CAKI-1 renal): 12.6 µM
TGI (CAKI-1 renal): 25.1 µM
GI50 (TK-10 renal): 13.5 µM
TGI (TK-10 renal): 27 µM
GI50 (DU-145 prostate): 11.4 µM
TGI (DU-145 prostate): 27.5 µM
GI50 (SF-295 CNS): 15 µM
TGI (SF-295 CNS): 32.5 µM
GI50 (SF-539 CNS): 14.1 µM
TGI (SF-539 CNS): 29 µM
GI50 (UACC-257 melanoma): 11.2 µM
TGI (UACC-257 melanoma): 23.2 µM
GI50 (A549 NSCLC): 10.4 µM
TGI (A549 NSCLC): 24.7 µM
GI50 (BT-549 breast): 5.93 µM
TGI (BT-549 breast): 20.2 µM
GI50 (HOP-92 NSCLC): 4.35 µM
TGI (HOP-92 NSCLC): 19.5 µM
GI50 (MALME-3M melanoma): 13.8 µM
TGI (MALME-3M melanoma): 28.2 µM
GI50 (ACHN renal): 14.3 µM
TGI (ACHN renal): 28 µM
GI50 (HCT-15 colon): 3.76 µM
TGI (HCT-15 colon): 12.9 µM
